Tests used:
[1] = target: T1, WNV NS2B-NS3 protease (NS2B-NS3pro) (West Nile virus strain NY-99, UniProt Q9Q6P4); experiment: fluorogenic protease assay, pERTKR-AMC, four-parameter fit, […] concentrations; type: biochemical
T1 construct: gene GP1; cut from WNV genome polyprotein; with Serine protease subunit NS2B (cofactor region)

[2] = target: T1, WNV NS2B-NS3 protease (NS2B-NS3pro); experiment: fluorogenic protease assay, pERTKR-AMC, nonlinear fit in competitive mode; type: biochemical

T1 sequence (Q9Q6P4 1423-1469): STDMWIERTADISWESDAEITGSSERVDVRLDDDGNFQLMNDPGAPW
T1 sequence (Q9Q6P4 1506-1689): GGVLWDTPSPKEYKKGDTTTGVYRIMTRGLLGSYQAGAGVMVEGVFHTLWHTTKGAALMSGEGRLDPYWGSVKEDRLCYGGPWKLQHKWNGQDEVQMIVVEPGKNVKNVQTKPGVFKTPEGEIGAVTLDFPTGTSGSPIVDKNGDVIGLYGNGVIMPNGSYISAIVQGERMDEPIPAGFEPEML

With `C=CCc1ccc(OCc2cn(Cc3ccccc3Br)nn2)c(OC)c1` [compound 35, 4-((4-allyl-2-methoxyphenoxy)methyl)-1-(2-bromobenzyl)-1H-1,2,3-triazole] the IC50 [1] was 6.86 µM and the Ki [2] was 3.06 µM.
